The results in this text go back to PMC12811658, “Design, Synthesis, and Structural Evolution of Pseudo‐Natural Product IDO1 Inhibitors and Degraders” (Angewandte Chemie (International Ed. in English), 2025).

One series relates to SKOV-3 tumor. Nature of the series: SKOV-3 tumor-bearing mouse model. The settings on record: 30 mg kg−1 IP twice daily. Type of series: in vivo, NSG immunodeficient mice. The protocol: Incubation at 37 °C for 3 h. Representative data for n = 3. c) Time‐course of heme displacement from IDO1 detected by the absorbance at the Soret peak (404 nm) as a function of time. […] All curves were fit using a one‐site model with N = 1 and defined IDO1 concentration. Left plots show baseline corrected data, while right plots show integrated binding isotherms versus iDegs/IDO1 ratio. IDO1 protein (125 µM) was titrated into the stirred sample cell containing iDegs (25 µM, except for iDeg‐8 at 50 µM). Representative data for n = 3, except for iDeg‐9 (n = 2). g)–i) In vivo activity of iDeg‐6. NSG immunodeficient mice were injected with SKOV‐3 cells. Mice were treated with 18 intraperitoneal injections of iDeg‐6 (30 mg kg^−1) or vehicle. The pharmacological treatment was twice daily. Tumor volume was determined weekly by digital caliper. g) SKOV‐3 tumor growth curves in iDeg‐6‐treated mice (n = 12, green lines) or vehicle‐treated mice (n = 13, gray lines). Statistical analysis was performed by two‐way ANOVA: ****p < 0.001. h) Body weight changes during treatment window (mean values ± range). i) Survival data are shown by Kaplan‐Meier survival analysis. Mantel–Haenszel statistical analysis: p < 0.0001).
The limited clinical efficacy of IDO1 inhibitors is likely due in part to its non‐enzymatic functions that are not targeted by catalytic inhibition.^[ [32], [33], [34], [35], [36], [37], [38] ^] […] SKOV‐3 cells were subsequently engrafted into NSG immunodeficient mice to establish a SKOV‐3 tumor‐bearing model (Figure S11a). Mice were treated with iDeg‐6 at a dose of 30 mg kg^−1, administered twice daily for 18 days.
NSG female mice (NOD.Cg-PrkdcSCIDIl2rgtm1Wjl/SzJ) were purchased from Charles River (Calco, Italia) with 10 weeks age. […] Tumor volume was determined weekly by digital caliper from 10 days after tumor challenging to the endpoint of the experiment (day 80). […] All animal experiments were under the Amsterdam Protocol on animal protection and welfare: mice were monitored daily and euthanized when displaying excessive discomfort.

Series [1] is described as follows: Pharmacokinetics of iDeg-6. In kind it is in vivo, male C57Bl/6 mice. The conditions noted are these: male, C57Bl/6, mouse, plasma. The protocol:
In vivo pharmacology characterization was carried out at Pharmacelsus GmbH, Saarbrücken, Germany, using male C57Bl/6 mice. Food and water was provided ad libitum before and during each study. All experimental procedures were approved by and conducted in accordance with the regulations of the local Animal Welfare Authorities. Plasma samples were analysed by liquid chromatography tandem-mass spectrometry using a generic method. Pharmacokinetic parameters were calculated by non-compartmental analysis. […] Up to 120 mg/kg PO and 30 mg/kg IP no clinical signs were observed. […] Due to the larger plasma exposure of iDeg-6 the IP route was selected for efficacy studies.

Another series has as its system C57Bl/6 mice. Nature of the series: Tolerability (dose escalation PO and IP). In kind it is in vivo, male C57Bl/6 mice. The conditions noted are these: for dose up to which no clinical signs were observed: dose escalation over 3-5 days.

Each structure is given as a SMILES string.

For `C#Cc1ccc(NC(=O)OC[C@]23CN(S(=O)(=O)c4ccc(C(C)(C)C)cc4C)C[C@H]2C[C@H]2C[C@@H]3C2(C)C)cc1` [98 (iDeg-6), ((3aS,4R,6R,7aS)-2-((4-(tert-butyl)-2-methylphenyl)sulfonyl)-5,5-dimethyloctahydro-3aH-4,6-methanoisoindol-3a-yl)methyl (4-ethynylphenyl)carbamate], the “body weight (in words)” value in the series with SKOV-3 tumor is given as “no significantly negative impact on body weight”. The “overall survival (in words)” value with SKOV-3 tumor (Kaplan-Meier) is recorded as “significantly improved the overall survival time”. Further, in the series with SKOV-3 tumor (p < 0.001 vs control), the “tumor growth (in words)” value is reported as “significant inhibition of tumor growth”. Moreover, in series [1] (1 mg/kg IV), the AUC(0-inf) turned out to be 414 ng·h/mL, the C0 came to 1120 ng/mL, the clearance was 40.3 mL/min/kg and the half-life was 1.1 h. Besides, the Vd in series [1] (1 mg/kg IV, read-out: Vz) was found to be 3.82 L/kg. Also, in series [1] (30 mg/kg IP), the AUC(0-inf) amounted to 7040 ng·h/mL, the Cmax was found to be 872 ng/mL, the bioavailability was 57% and the half-life was 4 h. The “clinical signs (in words)” value with C57Bl/6 mice (60 mg/kg IP, individual animals, shortly after administration) is “piloerection, subdued behavior”. Further, the “dose up to which no clinical signs were observed” value in the series on C57Bl/6 mice (IP) was at most 30 mg/kg. Further, in the series with C57Bl/6 mice (PO), the “dose up to which no clinical signs were observed” value is reported as “Up to 120 mg/kg”. In addition, in the series on C57Bl/6 mice (up to 30 mg kg−1 IP, no clinical signs), the “tolerability (in words)” value is given as “well tolerated”.

In general, AUC(0-inf) refers to total exposure, with the tail of the curve extrapolated. Read a low AUC(0-inf) as less exposure. Usually clearance stands for the volume of plasma or blood freed of the substance per unit of time. A low value points to inefficient removal. The term half-life denotes how long it takes for the measured level to halve. Lower therefore signals fast loss. Usually Cmax stands for the maximum level reached in the sampled fluid or tissue. A word on the bioavailability: it is dose-corrected exposure relative to a reference, in per cent. Higher therefore signals much systemic uptake.
